In ChEMBL document CHEMBL3991601, “The target landscape of clinical kinase drugs” (Science, 2017) one finds Kd data, which are given here for 14 compounds.

SMILES strings stand for the structures. The source made the active and inactive calls. Cut-off read from the data, not from the text of the source, for most assays here: actives have a measured Kd and inactives only a lower limit.

Experiment [1] deals with Calcium/calmodulin-dependent protein kinase type II subunit gamma (Homo sapiens, UniProt Q13555).
Calcium/calmodulin-dependent protein kinase type II subunit gamma, sequence (Q13555 whole entry): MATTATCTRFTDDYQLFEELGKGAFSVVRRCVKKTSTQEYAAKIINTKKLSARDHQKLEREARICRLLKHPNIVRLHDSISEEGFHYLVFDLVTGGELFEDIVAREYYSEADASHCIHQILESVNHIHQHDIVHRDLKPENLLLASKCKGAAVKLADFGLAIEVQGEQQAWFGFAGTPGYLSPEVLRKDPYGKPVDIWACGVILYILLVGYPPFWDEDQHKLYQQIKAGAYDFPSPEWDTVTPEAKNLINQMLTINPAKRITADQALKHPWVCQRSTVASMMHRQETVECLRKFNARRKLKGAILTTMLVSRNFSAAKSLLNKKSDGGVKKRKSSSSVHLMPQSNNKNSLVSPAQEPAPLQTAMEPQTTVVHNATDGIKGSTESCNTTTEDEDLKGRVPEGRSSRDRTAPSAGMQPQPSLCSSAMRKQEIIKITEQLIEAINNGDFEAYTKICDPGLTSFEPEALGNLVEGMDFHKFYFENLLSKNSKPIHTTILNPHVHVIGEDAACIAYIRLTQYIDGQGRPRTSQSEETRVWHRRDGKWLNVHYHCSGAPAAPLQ
Experiment [2] has as its target Tyrosine-protein kinase FRK (Homo sapiens, UniProt P42685).
Another experiment has as its target T1, Glycine--tRNA ligase (Homo sapiens, UniProt P41250).
T1 sequence (P41250 whole entry): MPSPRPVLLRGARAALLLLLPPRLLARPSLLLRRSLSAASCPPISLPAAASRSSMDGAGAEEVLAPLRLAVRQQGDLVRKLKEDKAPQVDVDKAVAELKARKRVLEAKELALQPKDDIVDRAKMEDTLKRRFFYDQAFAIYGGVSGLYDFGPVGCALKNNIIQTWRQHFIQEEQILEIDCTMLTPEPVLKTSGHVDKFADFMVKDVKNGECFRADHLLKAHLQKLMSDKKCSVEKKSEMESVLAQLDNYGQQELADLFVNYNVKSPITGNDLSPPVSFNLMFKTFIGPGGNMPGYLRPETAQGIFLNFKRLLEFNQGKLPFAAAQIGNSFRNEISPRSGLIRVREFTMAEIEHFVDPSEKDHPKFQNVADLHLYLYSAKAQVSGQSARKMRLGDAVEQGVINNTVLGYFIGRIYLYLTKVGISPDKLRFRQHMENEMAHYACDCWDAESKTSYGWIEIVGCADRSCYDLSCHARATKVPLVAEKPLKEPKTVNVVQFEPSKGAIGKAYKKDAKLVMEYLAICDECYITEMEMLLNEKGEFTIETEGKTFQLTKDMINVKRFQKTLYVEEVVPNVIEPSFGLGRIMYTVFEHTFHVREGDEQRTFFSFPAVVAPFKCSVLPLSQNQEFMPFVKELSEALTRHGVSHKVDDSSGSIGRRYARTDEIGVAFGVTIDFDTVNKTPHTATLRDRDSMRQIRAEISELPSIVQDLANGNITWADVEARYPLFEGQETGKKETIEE

For experiment [3], the target named is Dual specificity mitogen-activated protein kinase kinase 1 (Homo sapiens, UniProt Q02750).
Dual specificity mitogen-activated protein kinase kinase 1, sequence (Q02750 whole entry): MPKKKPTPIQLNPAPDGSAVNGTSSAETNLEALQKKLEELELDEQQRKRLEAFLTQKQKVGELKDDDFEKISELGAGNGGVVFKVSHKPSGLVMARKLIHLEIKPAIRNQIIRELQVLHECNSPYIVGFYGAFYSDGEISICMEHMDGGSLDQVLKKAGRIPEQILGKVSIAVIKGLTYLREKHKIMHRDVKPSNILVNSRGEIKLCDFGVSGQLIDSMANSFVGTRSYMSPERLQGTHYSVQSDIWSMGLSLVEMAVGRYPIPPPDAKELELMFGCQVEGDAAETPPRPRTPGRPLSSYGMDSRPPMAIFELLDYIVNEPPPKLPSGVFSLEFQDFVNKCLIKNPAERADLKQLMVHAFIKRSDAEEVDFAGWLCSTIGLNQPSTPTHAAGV
The target in experiment [4] is cAMP-dependent protein kinase catalytic subunit beta (Homo sapiens, UniProt P22694).
The target of experiment [5] is Protein kinase C alpha type (Homo sapiens, UniProt P17252).
The target in the next experiment is Focal adhesion kinase 1 (Homo sapiens, UniProt Q05397).
Focal adhesion kinase 1, sequence (Q05397 whole entry): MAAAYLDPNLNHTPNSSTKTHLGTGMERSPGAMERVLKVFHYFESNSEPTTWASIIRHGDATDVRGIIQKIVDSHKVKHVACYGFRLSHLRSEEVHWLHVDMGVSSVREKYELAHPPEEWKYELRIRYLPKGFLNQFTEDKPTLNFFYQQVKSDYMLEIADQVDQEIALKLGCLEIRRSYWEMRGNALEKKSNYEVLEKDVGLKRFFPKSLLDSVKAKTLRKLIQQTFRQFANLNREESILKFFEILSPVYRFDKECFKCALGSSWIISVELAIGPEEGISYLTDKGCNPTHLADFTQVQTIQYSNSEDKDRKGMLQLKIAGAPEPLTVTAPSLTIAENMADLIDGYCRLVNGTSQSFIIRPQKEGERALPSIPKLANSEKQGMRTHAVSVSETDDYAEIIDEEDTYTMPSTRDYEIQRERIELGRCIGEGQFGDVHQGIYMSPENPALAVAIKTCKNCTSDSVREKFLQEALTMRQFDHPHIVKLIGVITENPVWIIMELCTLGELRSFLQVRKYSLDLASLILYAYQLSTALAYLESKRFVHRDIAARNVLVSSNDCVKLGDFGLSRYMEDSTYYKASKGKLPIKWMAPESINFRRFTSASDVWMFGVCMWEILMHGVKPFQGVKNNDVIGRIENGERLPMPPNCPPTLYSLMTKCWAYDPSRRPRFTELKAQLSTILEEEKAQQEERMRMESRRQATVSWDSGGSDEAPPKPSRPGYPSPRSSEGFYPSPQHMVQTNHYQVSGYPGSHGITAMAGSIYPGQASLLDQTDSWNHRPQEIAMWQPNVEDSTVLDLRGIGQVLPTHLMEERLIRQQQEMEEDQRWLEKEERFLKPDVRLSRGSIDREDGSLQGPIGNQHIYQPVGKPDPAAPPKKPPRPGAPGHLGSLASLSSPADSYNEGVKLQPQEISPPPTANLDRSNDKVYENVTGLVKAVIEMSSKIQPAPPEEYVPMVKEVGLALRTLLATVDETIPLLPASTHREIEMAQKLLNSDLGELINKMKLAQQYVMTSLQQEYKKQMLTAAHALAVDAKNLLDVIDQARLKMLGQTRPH
The target in the next experiment is T2, ADP/ATP translocase 2 (Homo sapiens, UniProt P05141).
T2 sequence (P05141 whole entry): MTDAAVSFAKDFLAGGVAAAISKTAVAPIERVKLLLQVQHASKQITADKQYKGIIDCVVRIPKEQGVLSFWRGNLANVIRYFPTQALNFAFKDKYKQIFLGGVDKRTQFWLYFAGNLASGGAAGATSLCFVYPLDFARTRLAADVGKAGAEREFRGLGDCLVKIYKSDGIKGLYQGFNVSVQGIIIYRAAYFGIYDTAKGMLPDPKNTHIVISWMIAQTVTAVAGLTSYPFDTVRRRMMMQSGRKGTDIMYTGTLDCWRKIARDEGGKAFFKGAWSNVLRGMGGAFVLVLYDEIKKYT

Experiment [6] has as its target T3, Thyroid hormone receptor-associated protein 3 (Homo sapiens, UniProt Q9Y2W1).
T3 sequence (Q9Y2W1 whole entry): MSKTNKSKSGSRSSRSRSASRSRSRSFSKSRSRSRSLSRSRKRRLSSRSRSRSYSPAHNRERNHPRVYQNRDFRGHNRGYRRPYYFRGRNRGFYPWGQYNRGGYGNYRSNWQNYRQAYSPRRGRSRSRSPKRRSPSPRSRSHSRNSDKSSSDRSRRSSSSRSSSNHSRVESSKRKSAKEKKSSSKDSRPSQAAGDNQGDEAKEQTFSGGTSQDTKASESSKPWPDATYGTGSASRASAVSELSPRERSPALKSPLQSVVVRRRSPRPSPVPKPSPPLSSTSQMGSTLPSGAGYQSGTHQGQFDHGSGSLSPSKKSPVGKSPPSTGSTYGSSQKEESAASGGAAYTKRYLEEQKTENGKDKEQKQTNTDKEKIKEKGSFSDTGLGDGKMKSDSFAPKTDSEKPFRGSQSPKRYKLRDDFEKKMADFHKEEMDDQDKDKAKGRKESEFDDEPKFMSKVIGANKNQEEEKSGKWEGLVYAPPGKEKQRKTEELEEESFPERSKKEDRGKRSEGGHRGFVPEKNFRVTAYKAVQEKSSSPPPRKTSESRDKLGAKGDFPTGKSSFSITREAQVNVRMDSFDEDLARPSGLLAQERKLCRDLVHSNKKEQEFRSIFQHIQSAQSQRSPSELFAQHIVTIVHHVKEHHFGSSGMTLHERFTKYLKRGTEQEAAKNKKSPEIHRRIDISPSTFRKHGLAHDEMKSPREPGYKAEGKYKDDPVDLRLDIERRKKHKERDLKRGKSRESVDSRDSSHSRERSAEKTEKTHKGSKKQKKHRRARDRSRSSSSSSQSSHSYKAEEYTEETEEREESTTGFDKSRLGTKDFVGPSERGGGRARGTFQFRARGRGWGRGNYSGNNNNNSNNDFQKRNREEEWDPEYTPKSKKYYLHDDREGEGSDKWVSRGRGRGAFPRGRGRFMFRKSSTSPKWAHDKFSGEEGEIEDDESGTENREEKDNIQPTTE
Note: in the data inactive means no Kd found up to 30 µM.

Tyrosine-protein kinase FRK, sequence (P42685 whole entry): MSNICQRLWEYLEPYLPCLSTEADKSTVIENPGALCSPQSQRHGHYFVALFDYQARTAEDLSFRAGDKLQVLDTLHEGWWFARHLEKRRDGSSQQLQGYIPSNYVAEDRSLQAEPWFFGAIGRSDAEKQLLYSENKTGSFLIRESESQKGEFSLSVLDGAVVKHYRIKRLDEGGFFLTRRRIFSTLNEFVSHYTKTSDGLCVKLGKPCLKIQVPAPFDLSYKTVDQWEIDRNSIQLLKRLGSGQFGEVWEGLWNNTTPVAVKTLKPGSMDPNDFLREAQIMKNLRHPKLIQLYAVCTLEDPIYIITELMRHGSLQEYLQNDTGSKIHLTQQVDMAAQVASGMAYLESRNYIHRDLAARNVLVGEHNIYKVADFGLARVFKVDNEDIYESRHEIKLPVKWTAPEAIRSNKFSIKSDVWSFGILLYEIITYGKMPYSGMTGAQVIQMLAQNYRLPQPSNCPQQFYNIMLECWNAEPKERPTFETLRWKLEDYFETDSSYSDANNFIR

For `C[C@H]1CNCCCN1S(=O)(=O)c1cccc2cncc(F)c12`, the Kd (in [1]; in experiment [2]; at Glycine--tRNA ligase; in experiment [3]; in experiment [4]; in [5]) was > 30 µM (inactive) throughout. Further, the Kd (on Focal adhesion kinase 1; on ADP/ATP translocase 2; in experiment [6]) was > 30 µM (inactive) in each case.

Consider `CCNC(=O)C#Cc1ccc2c(c1)NC(=O)/C2=C(\Nc1ccc(CN(C)C)cc1)c1ccccc1`, for which the Kd in experiment [1] was > 30 µM (inactive); in [2] it was 0.736 µM (active); on Glycine--tRNA ligase it was > 30 µM (inactive); in experiment [4] it was > 30 µM (inactive); in [5], > 30 µM (inactive); on Focal adhesion kinase 1 it was > 30 µM (inactive). Moreover, the Kd (on ADP/ATP translocase 2; in experiment [6]) was > 30 µM (inactive) throughout.

In the case of `C=CC(=O)N1CCC[C@H](n2c(=O)n(-c3ccc(Oc4ccccc4)cc3)c3c(N)ncnc32)C1`, the Kd (in experiment [1]; in experiment [2]; at Glycine--tRNA ligase; in [3]; in experiment [4]; in experiment [5]) was > 30 µM (inactive) throughout. Further, the Kd (at Focal adhesion kinase 1; at ADP/ATP translocase 2; in [6]) was > 30 µM (inactive) in each case.

With `Cc1nc2cc(-c3nn(C(C)C)c4ncnc(N)c34)ccc2o1`, the Kd was > 30 µM (inactive) in experiment [1]; > 30 µM (inactive) in experiment [2]; > 30 µM (inactive) at Glycine--tRNA ligase; 3.01 µM (active) in [3]; > 30 µM (inactive) in [4]; 21.8 µM (active) in [5]. Moreover, the Kd (on Focal adhesion kinase 1; on ADP/ATP translocase 2; in experiment [6]) was > 30 µM (inactive) throughout.

For the compound `COCc1c(-c2ccc(NC(=O)Nc3cc(C(F)(F)F)ccc3F)c(F)c2)c2c(N)ncnn2c1CN1CCOCC1`, the Kd was > 30 µM (inactive) in [1]; 1.86 µM (active) in experiment [2]; > 30 µM (inactive) on Glycine--tRNA ligase; > 30 µM (inactive) in experiment [3]; > 30 µM (inactive) in [4]; > 30 µM (inactive) in experiment [5]. In addition, the Kd (on Focal adhesion kinase 1; on ADP/ATP translocase 2; in [6]) was > 30 µM (inactive) each time.

With `Cc1nc(NC(=O)N2CCC[C@H]2C(N)=O)sc1-c1ccnc(C(C)(C)C(F)(F)F)c1` [ALPELISIB], the Kd (in experiment [1]; in experiment [2]; on Glycine--tRNA ligase; in experiment [3]; in experiment [4]; in experiment [5]) was > 30 µM (inactive) each time. Further, the Kd (on Focal adhesion kinase 1; at ADP/ATP translocase 2; in experiment [6]) was > 30 µM (inactive) in each case.

Regarding `Cc1csc(-c2nnc(Nc3ccc(Oc4ncccc4-c4ccnc(N)n4)cc3)c3ccccc23)c1` [AMG-900], the Kd in experiment [1] was > 30 µM (inactive); in [2], > 30 µM (inactive); at Glycine--tRNA ligase it was > 30 µM (inactive); in experiment [3], 3.31 µM (active); in experiment [4], > 30 µM (inactive); in experiment [5], > 30 µM (inactive). The Kd at Focal adhesion kinase 1 was > 30 µM (inactive); at ADP/ATP translocase 2 it was > 30 µM (inactive); in [6] it was 2.75 µM.

On to `O=C(Nc1c[nH]nc1-c1nc2cc(CN3CCOCC3)ccc2[nH]1)NC1CC1` [AT-9283], for which the Kd was > 30 µM (inactive) in [1]; > 30 µM (inactive) in [2]; > 30 µM (inactive) at Glycine--tRNA ligase; > 30 µM (inactive) in experiment [3]; 0.927 µM (active) in [4]; > 30 µM (inactive) on Focal adhesion kinase 1. For the same compound, the Kd (on ADP/ATP translocase 2; in experiment [6]) was > 30 µM (inactive) in each case.

With `Cc1cc(C(=O)NOCCO)c(Nc2ccc(I)cc2F)n(C)c1=O` [AZD-8330], the Kd (in experiment [1]; in experiment [2]; on Glycine--tRNA ligase; in [4]; in experiment [5]; at Focal adhesion kinase 1) was > 30 µM (inactive) in each case. The Kd (on ADP/ATP translocase 2; in experiment [6]) was > 30 µM (inactive) in each case.

As for `Cc1cc(Nc2ncc(Cl)c(Nc3ccccc3S(=O)(=O)C(C)C)n2)c(OC(C)C)cc1C1CCNCC1` [CERITINIB], the Kd (in [1]; in [2]; on Glycine--tRNA ligase; in experiment [3]; in experiment [4]; in experiment [5]) was > 30 µM (inactive) each time. Also, the Kd (at ADP/ATP translocase 2; in [6]) was > 30 µM (inactive) throughout.

Regarding `CC(C)(C)c1nc(-c2cccc(NS(=O)(=O)c3c(F)cccc3F)c2F)c(-c2ccnc(N)n2)s1` [DABRAFENIB], the Kd was > 30 µM (inactive) in [1]; 0.727 µM (active) in [2]; > 30 µM (inactive) on Glycine--tRNA ligase; > 30 µM (inactive) in experiment [3]; > 30 µM (inactive) in [5]; > 30 µM (inactive) on Focal adhesion kinase 1. In addition, the Kd (at ADP/ATP translocase 2; in experiment [6]) was > 30 µM (inactive) in each case.

Regarding `CCOc1cc2ncc(C#N)c(Nc3ccc(F)c(Cl)c3)c2cc1NC(=O)/C=C/CN(C)C` [PELITINIB], the Kd in experiment [1] is > 30 µM (inactive); in [2], > 30 µM (inactive); on Glycine--tRNA ligase, > 30 µM (inactive); in experiment [3], 8.77 µM (active); in experiment [4], > 30 µM (inactive); in experiment [5], > 30 µM (inactive). Besides, the Kd (on ADP/ATP translocase 2; in [6]) was > 30 µM (inactive) throughout.

Regarding `Cc1nc(Nc2n[nH]c3c2CN(C(=O)N[C@H](CN(C)C)c2ccccc2)C3(C)C)c2sccc2n1` [PF-03758309], the Kd in [1] was 0.275 µM (active); in experiment [2], > 30 µM (inactive); on Glycine--tRNA ligase, > 30 µM (inactive); in [3], > 30 µM (inactive); in experiment [5], 0.873 µM (active); on Focal adhesion kinase 1, > 30 µM (inactive). Besides, the Kd (at ADP/ATP translocase 2; in experiment [6]) was > 30 µM (inactive) throughout.

In the case of `CNC(=O)c1cc(Oc2ccc(NC(=O)Nc3cc(C(C)(C)C)nn3-c3ccc4ncccc4c3)c(F)c2)ccn1` [REBASTINIB], the Kd (in experiment [1]; on Glycine--tRNA ligase; in [3]; in [4]; in [5]; on Focal adhesion kinase 1) was > 30 µM (inactive) in each case. Moreover, the Kd (on ADP/ATP translocase 2; in experiment [6]) was > 30 µM (inactive) in each case.
